Assay results from US6716859B2, “Substituted N′-(Arylcarbonyl)-benzhydrazides, N′(Arylcarbonyl)-benzylidene-hydrazides and analogs as activators of caspases and inducers of apoptosis and the use thereof” (Cytovia, Inc., priority 2001, dated 2004).

Tests used:
T-47D [1] = assay: Cell proliferation assay (GI50); type: cell-based, Human; details: 48 h
Description: (§1) T-47D and ZR-75-1 cells were grown and harvested as in Example 43. An aliquot of 90 μl of cells (2.2×10^4 cells/ml) was added to a well of a 96-well microtiter plate containing 10 μl of a 10% DMSO in RPMI-1640 media solution containing 1 nM to 100 μM of N′-(2-phenoxypyridine-3-carbonyl)-3-(trifluoromethyl)benzhydrazide (0.1 nM to 10 μM final). An aliquot of 90 μl of cells was added to a well of a 96-well microtiter plate containing 10 μl of a 10% DMSO in RPMI-1640 media solution without compound as the control sample for maximal cell proliferation (AMax). The samples were mixed by agitation and then incubated at 37° C. for 48 h in a 5% CO2-95% humidity incubator. After incubation, the samples were removed from the incubator and 20 μl of CellTiter 96 AQUEOUS One Solution Cell Proliferation™ reagent (Promega) was added. The samples were mixed by agitation and incubated at 37° C. for 2-4 h in a 5% CO2-95% humidity incubator. Using an absorbance plate reader (Model 1420 Wallac Instruments), an initial reading (T=0) was made approximately 1-2 min after addition of the solution, employing absorbance at 490 nm. This determines the possible background absorbance of the test compounds. No absorbance for N′-(2-phenoxypyridine-3-carbonyl)-3-(trifluoromethyl)benzhydrazide was found at 490 nm. After the 2-4 h incubation, the samples were read for absorbance as above (ATest).
(§2) Baseline for GI50 (dose for 50% inhibition of cell proliferation) of initial cell numbers were determined by adding an aliquot of 90 μl of cells or 90 μl of media, respectively, to wells of a 96-well microtiter plate containing 10 μl of a 10% DMSO in RPMI-1640 media solution. The samples were mixed by agitation and then incubated at 37° C. for 0.5 h in a 5% CO2-95% humidity incubator. After incubation, the samples were removed from the incubator and 20 μl of CellTiter 96 AQUEOUS One Solution Cell Proliferation™ reagent (Promega) was added. The samples were mixed by agitation and incubated at 37° C. for 2-4 h in a 5% CO2-95% humidity incubator. Absorbance was read as above, (AStart) defining absorbance for initial cell number used as baseline in GI50 determinations.
(§3) GI50 (dose for 50% inhibition of cell proliferation) is the concentration where [(ATest−AStart)/(AMax−AStart)]=0.5
(§4) T-47D, ZR-75-l, MX-1, SK-Br-3, MCF-7, Panc-1, K562 and PC-3 cells were grown according to the conditions recommended by American Type Culture Collection. SW620 and NCI-H23 were grown according to the conditions provided by National Cancer Institute. The cell proliferation assay and the calculations of GI50 were performed as in Example 21 (Tables III and IV).

T-47D cells = assay: Cell cycle arrest by propidium iodide flow cytometry; type: cell-based, Human; details: 1 μM, 24 h
Description: T-47D, a breast cancer cell line, was maintained and harvested as described in Example 43. 5×10^5 Cells were treated with 1 μM of N′-(2-phenoxypyridine-3-carbonyl)-3-(trifluoromethyl)benzhydrazide for 24 h at 37° C. As a control, cells were also incubated with equivalent amount of solvent (DMSO). Cells were harvested at 1,200 rpm and then transferred to 12×75 mm polystyrene tubes. Cells were then resuspended in 500 μl of 1% Na Citrate, 0.1% Triton X-100, and 50 μg/ml of propidium iodide and incubated at room temperature for 30 min followed by flow cytometer analysis. All flow cytometry analyses were performed on FACScalibur (Becton Dickinson) using Cell Quest analysis software. The x-axis plotted the amount of fluorescence and the y-axis is plotted the number of cells with the indicated fluorescence. The T-47D control cell population profile is seen in FIG. 1A and the increase in G2/M (M4) DNA content cells that were treated with N′-(2-phenoxypyridine-3-carbonyl)-3-(trifluoromethyl)benzhydrazide is seen in FIG. 1B.

SK-Br-3 = assay: Cell proliferation assay (GI50); type: cell-based; details: Homo sapiens
Description: as §1, §2, §3, §4

Panc-1 = assay: Cell proliferation assay (GI50); type: cell-based; details: Homo sapiens
Description: as §1, §2, §3, §4

NCI-H23 = assay: Cell proliferation assay (GI50); type: cell-based; details: Homo sapiens
Description: as §1, §2, §3, §4

ZR-75-1 [2] = assay: Cell proliferation assay (GI50); type: cell-based; details: Homo sapiens, 48 h
Description: as §1, §2, §3, §4

K562 = assay: Cell proliferation assay (GI50); type: cell-based; details: Homo sapiens
Description: as §1, §2, §3, §4

PC-3 = assay: Cell proliferation assay (GI50); type: cell-based; details: Homo sapiens
Description: as §1, §2, §3, §4

MX-1 = assay: Cell proliferation assay (GI50); type: cell-based; details: Homo sapiens, MX1
Description: as §1, §2, §3, §4

SW-620 = assay: Cell proliferation assay (GI50); type: cell-based; details: Homo sapiens
Description: as §1, §2, §3, §4

MCF-7 = assay: Cell proliferation assay (GI50); type: cell-based; details: Homo sapiens, MCF7
Description: as §1, §2, §3, §4

T47D cells = assay: Clonogenic survival assay; type: cell-based; details: Homo sapiens, 48 h treatment, read-out: IC50 of inhibition of clonogenic survival
Description: (§5) T47D and MX-1 cells were grown according to the conditions recommended by American Type Culture Collection. In a well of a 96 well plate, 30,000 cells were seeded and treated with compound at the indicated concentrations for 48 hr in a 5% CO2-95% humidity incubator at 37° C. Control wells were treated with the same amount of solvent (DMSO) as the compound samples. After the indicated treatment time, the supernatant was removed to a sterile culture tube and the wells washed with phosphate buffered saline, and the adherent cells trypsinized for 5 min. The trypsinzed cells were added to the culture supernatant, cells were collected (1,200 rpm, 10 min), washed with phosphate buffered saline, and resupended in fresh media. The cells were counted for trypan blue negative cells, and the cells diluted with fresh media to 1,000 cells/ml. To a well of a 24-well plate, 0.1 ml of the cell suspension was added along with 1 ml of fresh media (cell suspensions were passed through a 22 G needle several times just before plating to form single cell suspensions). Plates are incubated in a 5% CO2-95% humidity incubator at 37° C. for 7-10 days. Colonies are counted when the sizes reached greater than 50 cells per colony. […] Colonies are rinsed with water and the colonies counted and the fraction surviving expressed as the percentage of the number of control colonies.

MX-1 cells = assay: Clonogenic survival assay; type: cell-based; details: Homo sapiens, MX1, 48 h treatment, read-out: IC50 of inhibition of clonogenic survival
Description: as §5

[3] = system: breast and non-breast cancer cells; assay: Cell proliferation assay, breast versus non-breast cancer cell lines; type: cell-based; details: conclusion from Tables III and IV
Description: as §1
as §2, with “Absorbance was read as above, (AStart) defining absorbance for initial cell number used as baseline in GI50 determinations.” left out

ZR-75-1 [4] = assay: Caspase cascade activation assay (fluorogenic DEVD substrate); type: cell-based, Human; details: 48 h; for Caspase activity Ratio: ratio of net RFU of test compound to control
Description: (§6) Human breast cancer cell lines T-47D and ZR-75-1 were grown according to media component mixtures designated by American Type Culture Collection+10% FCS (Invitrogen Corporation), in a 5% CO2-95% humidity incubator at 37° C. T-47D and ZR-75-1 cells were maintained at a cell density between 50 and 80% confluency at a cell density of 0.1 to 0.6×10^6 cells/ml. Cells were harvested at 600×g and resuspended at 0.65×10^6 cells/ml into appropriate media+10% FCS. An aliquot of […] of cells was added to a well of a 96-well microtiter plate containing 2.5 μl of a 10% DMSO in RPMI-1640 media solution containing 0.16 to 100 μM of N′-(2-phenoxypyridine-3-carbonyl)-3-(trifluoromethyl)benzhydrazide (Example 1) or other test compound (0.016 to 10 μM final). An aliquot of 22.5 μl of cells was added to a well of a 384-well microtiter plate containing 2.5 μl of a 10% DMSO in RPMI-1640 media solution without test compound as the control sample. The samples were mixed by agitation and then incubated at 37° C. for 48 h in a 5% CO2-95% humidity incubator. After incubation, the samples were removed from the incubator and 25 μl of a solution containing 14 μM of N-(Ac-DEVD)-N′-ethoxycarbonyl-R110 (SEQ ID No:1) fluorogenic substrate (Cytovia, Inc.; WO99/18856), 20% sucrose (Sigma), 20 mM DTT (Sigma), 200 mM NaCl (Sigma), 40 mM Na PIPES buffer pH 7.2 (Sigma), and 500 μg/ml lysolecithin (Calbiochem) was added. The samples were mixed by agitation and incubated at room temperature. Using a fluorescent plate reader (Model SpectraMax Gemini, Molecular Devices), an initial reading (T=0) was made approximately 1-2 min after addition of the substrate solution, employing excitation at 485 nm and emission at 530 nm, to determine the background fluorescence of the control sample. After the 3 h incubation, the samples were read for fluorescence as above (T=3 h).
(§7) The Relative Fluorescence Unit values (RFU) were used to calculate the sample readings as follows:
(§8) RFU(T=3 h)−Control RFU(T=0)=Net RFU(T=3 h)
(§9) The activity of caspase cascade activation was determined by the ratio of the net RFU value for N′-(2-phenoxypyridine-3-carbonyl)-3-(trifluoromethyl)benzhydrazide (Example 1) or other test compound to that of control samples. The EC50 (nM) was determined by a sigmoidal dose-response calculation (Prism 2.0, GraphPad Software Inc.).

T-47D [5] = assay: as above; type: cell-based, Human; details: 48 h; for Caspase activity Ratio: ratio of net RFU of test compound to control; for EC50: Homo sapiens, T47D, read-out: Caspase potency EC50
Description: as §6, §7, §8, §9

GI50 (T-47D [1]; Homo sapiens, T47D) [nM]	GI50 (SK-Br-3) [nM]	GI50 (Panc-1) [µM]	GI50 (NCI-H23) [µM]	GI50 (K562) [nM]	GI50 (PC-3) [µM]	GI50 (SW-620) [µM]	GI50 (MCF-7) [nM]	Caspase potency EC50 (ZR-75-1 [4])	EC50 (T-47D [5]) [nM]	GI50 (T-47D [1]) [nM]	EC50 (ZR-75-1 [4]; Homo sapiens, read-out: Caspase potency EC50) [nM]	SMILES	G2/M (M4) DNA content cells (T-47D cells)	GI50 (ZR-75-1 [2]) [nM]	GI50 (MX-1) [nM]	IC50 (T47D cells) [nM]	IC50 (MX-1 cells) [nM]	Selectivity of growth inhibition for breast cancer cells [3]	Caspase activity Ratio (ZR-75-1 [4])	Caspase activity Ratio (T-47D [5])
200	40	> 10	> 10	> 10000	> 10	> 10	400	INACTIVE	464	–	–	O=C(NNC(=O)c1cccnc1Oc1ccccc1)c1cccc(C(F)(F)F)c1 [Example 1, N′-(2-Phenoxypyridine-3-carbonyl)-3-(trifluoromethyl)benzhydrazide]	increase	4500	400	~1050	~600	selectively inhibits the growth of breast cancer cells	1.8	11.6
1000	300	–	1	450	–	1	800	–	744	600	728	O=C(NNC(=O)c1cccnc1Oc1ccccc1)c1ccccc1O [Example 8, N′-(2-Phenoxypyridine-3-carbonyl)-2-hydroxybenzhydrazide]	–	300	1000	–	–	inhibiting the growth of both breast and non-breast cancer cells	5.6	7.3
60	20	–	> 10	–	–	> 10	250	–	–	80	–	O=C(NN=Cc1cccc(C(F)(F)F)c1)c1cccnc1Oc1ccccc1 [Example 15, 2-Phenoxypyridine-3-carboxylic acid (3-trifluoromethylbenzylidene)-hydrazide]	–	2000	400	–	–	selectively inhibits the growth of breast cancer cells	–	–
